Legend:
SAE1 = SAE1 (Homo sapiens (Human), UniProt Q9UBE0+Q9UBT2); test: SAE High Throughput Biochemical Assay (HTRF), 15 min preincubation; conditions: read-out: 15 min preincubation HTRF IC50 (μM) Ave, SAE1 12.5 nM, ATP 100 μM
Outline: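 HTRF detection of SUMO transfer from SUMO-GST to UBC9-His (40 nM each) by SAE1 at 12.5 nM used 100 μM ATP in pH 7.5 HEPES buffer with 10 mM MgCl2 and 0.1% BSA. Enzyme and compound were preincubated 15 min at RT and the reaction ran 45 min, with readings after 2 h and overnight.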

[1] = test system: sumoylation levels (SUMO 2/3 conjugates) in HCT-116 cells; test: HCT-116 4 Hour Cell Assay (Western, SUMO 2/3 conjugates); assay type: cell-based; conditions: Homo sapiens, HCT-116, 4 h, 4 h treatment, Anti-Sumo 2-3 immunoblot, read-out: HCT-116 Western 4 h IC50 (μM) Ave
Experimental: This protocol describes the procedures used to assess the effects of compounds of interest on sumoylation levels. Immunoblot of SUMO 2/3 conjugates are performed and IC50 curves are generated upon quantification of sumoylations bands. HCT-116 cells are seeded in a 12 well plate (500,000 cells/well). The following day the cells are treated with compounds of interest (resuspended in DMSO) for 4 hours (11 concentrations with a three-fold dilution; starting concentration 25 μM) Following 4 hours of incubation the cells are washed with ice cold PBS 1×and protein extraction is performed with RIPA buffer supplemented with phosphatases and proteases inhibitors, 25 mM of NEM and 50 units/mL of Benzonase. Samples undergo centrifugation at 13,000 RPM, 4° C., for 10 minutes and the supernatant is collected. Protein quantification is performed using BCA. Non-Reducing Laemmli Buffer is added to the samples. Samples are heated at 75° C. for 10 minutes, and are centrifuged for 3 minutes at 9000 RPM Nupage 4-12% Bis Tris gels and 1× MOPS buffer (Fisher Scientific)+1× NuPAGE Antioxidant (Invitrogen) are used to perform the SDS-PAGE gel electrophoresis (20 to 40 μg of proteins are loaded in the gels). Proteins are then transferred to PVDF membranes and the level of total proteins are measured by staining with Revert Total Protein Stain and the fluorescent bands are acquired using the LI-COR FC (700 nm for 1 min) Membranes are blocked for 5 minutes with Bio-Rad Blocking Buffer and are subsequently incubated over night at 4° C. with Anti-Sumo 2-3 mAb (M BL #M114-3, 1:1000 in Bio-Rad Blocking Buffer, 0.2% Tween 20) Membranes are washed with 1×TBS-T (3 times for 5 minutes) and sumoylation is detected using Li-cor IRDye 800CW Goat anti-Mouse IgG secondary antibody (1:10,000 dilution) upon 1 hour of incubation in blocking buffer with 0.2% Tween 20 and 0.01% SDS. After the incubation, the membranes are washed with 1×TBS-T (3 times for 5 minutes). To visualize the fluorescent bands the membranes are scanned with LI-COR FC (700 nm for 1 min and […] for 2 mins). Sumoylation levels are quantified upon normalization with total protein levels, using the LI-COR Image Studio Lite 5.2 Software.

Chain of SAE1 (Q9UBE0 whole entry): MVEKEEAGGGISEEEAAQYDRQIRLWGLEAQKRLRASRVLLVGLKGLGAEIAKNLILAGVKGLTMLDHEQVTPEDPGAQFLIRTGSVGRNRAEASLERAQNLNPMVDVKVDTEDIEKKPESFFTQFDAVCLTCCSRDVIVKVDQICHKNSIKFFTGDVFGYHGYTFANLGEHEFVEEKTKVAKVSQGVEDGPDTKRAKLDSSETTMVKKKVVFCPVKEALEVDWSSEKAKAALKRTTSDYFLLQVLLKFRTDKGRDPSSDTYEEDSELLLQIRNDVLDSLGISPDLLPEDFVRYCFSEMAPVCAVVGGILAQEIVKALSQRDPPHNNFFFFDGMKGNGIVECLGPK
Chain of SAE1 (Q9UBT2 whole entry): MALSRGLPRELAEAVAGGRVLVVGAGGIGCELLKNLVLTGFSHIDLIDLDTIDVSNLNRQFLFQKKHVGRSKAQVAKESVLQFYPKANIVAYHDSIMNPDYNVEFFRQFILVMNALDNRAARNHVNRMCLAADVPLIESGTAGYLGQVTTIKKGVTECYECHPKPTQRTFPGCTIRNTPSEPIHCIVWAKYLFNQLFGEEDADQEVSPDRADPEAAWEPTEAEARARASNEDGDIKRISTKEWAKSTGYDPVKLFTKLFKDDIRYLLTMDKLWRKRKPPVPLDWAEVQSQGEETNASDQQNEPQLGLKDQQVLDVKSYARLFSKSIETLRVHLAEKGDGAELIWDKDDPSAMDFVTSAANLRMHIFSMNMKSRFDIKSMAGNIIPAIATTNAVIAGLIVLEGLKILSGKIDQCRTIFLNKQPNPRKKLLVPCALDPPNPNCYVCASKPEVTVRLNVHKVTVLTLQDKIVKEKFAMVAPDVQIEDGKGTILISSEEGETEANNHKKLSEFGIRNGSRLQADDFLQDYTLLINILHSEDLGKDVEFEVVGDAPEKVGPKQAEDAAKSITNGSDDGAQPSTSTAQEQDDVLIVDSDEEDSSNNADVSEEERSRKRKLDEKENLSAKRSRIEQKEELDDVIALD

IC50 [1] [µM] | Compound | IC50 (SAE1) [µM]
1.97 | CCn1cc(-c2ccccc2[C@@H]2CN(C(=O)/C=C/CNC(C)(C)CO)Cc3sc(C#N)cc32)c(C(F)(F)F)n1 [Compound 244] | 2.88
0.2 | CCn1cc(-c2ccccc2[C@@H]2CN(C(=O)/C=C/CN(C)C)Cc3sc(C#N)c(Cl)c32)c(C(F)(F)F)n1 [Compound 247] | 1.66
0.985 | CN(C)C/C=C/C(=O)N1Cc2sc(C#N)cc2[C@H](c2ccccc2-c2cn(C)nc2C(F)(F)F)C1 [Example 3, (S, E)-6-(4-(Dimethylamino)but-2-enoyl)-4-(2-(1-methyl-3-(trifluoromethyl)-1 H-pyrazol-4-yl)phenyl)-4,5,6,7-tetrahydrothieno[2,3-c]pyridine-2-carbonitrile] | 7.87
14.1 | CCn1cc(-c2ccccc2[C@@H]2CN(C(=O)/C=C/CN3CCC(C(=O)O)C3)Cc3sc(C#N)cc32)c(C(F)(F)F)n1 (stereo partly drawn) [Example 5, 1-((E)-4-((S)-2-Cyano-4-(2-(1-ethyl-3-(trifluoromethyl)-1 H-pyrazol-4-yl)phenyl)-4,7-dihydrothieno[2,3-c]pyridin-6(5H)-yl)-4-oxobut-2-en-1-yl)pyrrolidine-3-carboxylic acid] | 10.3
0.269 | CN(C)C/C=C/C(=O)N1Cc2sc(C#N)cc2[C@H](c2ccccc2-c2cn(CCF)nc2C(F)(F)F)C1 [Example 17, (S,E)-6-(4-(dimethylamino)but-2-enoyl)-4-(2-(1-(2-fluoroethyl)-3-(trifluoromethyl)-1 H-pyrazol-4-yl)phenyl)-4,5,6,7-tetrahydrothieno[2,3-c]pyridine-2-carbonitrile] | 2.47
0.692 | CCn1cc(-c2ccccc2[C@@H]2CN(C(=O)/C=C/CF)Cc3sc(C#N)cc32)c(C(F)(F)F)n1 [Example 20, (S, E)-4-(2-(1-ethyl-3-(trifluoromethyl)-1 H-pyrazol-4-yl)phenyl)-6-(4-fluorobut-2-enoyl)-4,5,6,7-tetrahydrothieno[2,3-c]pyridine-2-carbonitrile] | 0.69
0.331 | CCN(CC)C/C=C/C(=O)N1Cc2sc(C#N)cc2[C@H](c2ccccc2-c2cn(CC)nc2C(F)(F)F)C1 [Example 28, (S, E)-6-(4-(Diethylamino)but-2-enoyl)-4-(2-(1-ethyl-3-(trifluoromethyl)-1 H-pyrazol-4-yl)phenyl)-4,5,6,7-tetrahydrothieno[2,3-c]pyridine-2-carbonitrile] | 8.43
0.746 | CCn1cc(-c2ccccc2[C@@H]2CN(C(=O)/C=C/CN3CCCC3)Cc3sc(C#N)cc32)c(C(F)(F)F)n1 [Example 30, (S, E)-4-(2-(1-ethyl-3-(trifluoromethyl)-1 H-pyrazol-4-yl)phenyl)-6-(4-(pyrrolidin-1-yl)but-2-enoyl)-4,5,6,7-tetrahydrothieno[2,3-c]pyridine-2-carbonitrile] | 3.3
0.918 | CCn1cc(-c2ccccc2[C@@H]2CN(C(=O)/C=C/CN3CCCC3C)Cc3sc(C#N)cc32)c(C(F)(F)F)n1 (stereo partly drawn) [Example 31, (4S)-4-(2-(1-ethyl-3-(trifluoromethyl)-1 H-pyrazol-4-yl)phenyl)-6-((E)-4-(2-methylpyrrolidin-1-yl)but-2-enoyl)-4,5,6,7-tetrahydrothieno[2,3-c]pyridine-2-carbonitrile] | 10.2
2.05 | CCn1cc(-c2ccccc2[C@@H]2CN(C(=O)/C=C/CN3CCC(C)C3)Cc3sc(C#N)cc32)c(C(F)(F)F)n1 (stereo partly shown) [Example 32] | 3.9
0.569 | CCn1cc(-c2c(F)cccc2[C@@H]2CN(C(=O)/C=C/CN)Cc3sc(C#N)cc32)c(C(F)(F)F)n1 [Example 51, (S)-6-((E)-4-aminobut-2-enoyl)-4-((S)-2-(1-ethyl-3-(trifluoromethyl)-1 H-pyrazol-4-yl)-3-fluorophenyl)-4,5,6,7-tetrahydrothieno[2,3-c]pyridine-2-carbonitrile] | 1.29
0.308 | [2H]C(C)(C)NC/C=C/C(=O)N1Cc2sc(C#N)cc2[C@H](c2cccc(F)c2-c2cn(CC)nc2C(F)(F)F)C1 [Example 52, (S, E)-4-(2-(1-ethyl-3-(trifluoromethyl)-1 H-pyrazol-4-yl)-3-fluorophenyl)-6-(4-((propan-2-yl-2-d)amino)but-2-enoyl)-4,5,6,7-tetrahydrothieno[2,3-c]pyridine-2-carbonitrile] | 0.69
0.191 | CCn1cc(-c2c(F)cccc2[C@@H]2CN(C(=O)/C=C/[C@@H]3CCN3)Cc3sc(C#N)cc32)c(C(F)(F)F)n1 [Example 53, (S)-6-((E)-3-((S)-azetidin-2-yl)acryloyl)-4-((S)-2-(1-ethyl-3-(trifluoromethyl)-1 H-pyrazol-4-yl)-3-fluorophenyl)-4,5,6,7-tetrahydrothieno[2,3-c]pyridine-2-carbonitrile] | 0.34
0.57 | CCn1cc(-c2c(F)cccc2[C@@H]2CN(C(=O)/C=C/[C@H]3CCN3)Cc3sc(C#N)cc32)c(C(F)(F)F)n1 [Example 54, (S)-6-((E)-3-((R)-azetidin-2-yl)acryloyl)-4-((S)-2-(1-ethyl-3-(trifluoromethyl)-1 H-pyrazol-4-yl)-3-fluorophenyl)-4,5,6,7-tetrahydrothieno[2,3-c]pyridine-2-carbonitrile] | 0.55
2.59 | C=C(C(=O)N1Cc2sc(C#N)cc2[C@H](c2ccccc2-c2cn(CC)nc2C(F)(F)F)C1)C(F)(F)F [Example 60, (S)-4-(2-(1-Ethyl-3-(trifluoromethyl)-1 H pyrazol-4-yl)phenyl)-6-(2-(trifluoromethyl)acryloyl)-4,5,6,7-tetrahydrothieno[2,3-c]pyridine-2-carbonitrile] | 1.36
2.24 | CCn1cc(-c2ccccc2[C@@H]2CN(C(=O)/C=C/[C@@H](N)CO)Cc3sc(C#N)cc32)c(C(F)(F)F)n1 [Example 74, (S)-6-((R, E)-4-Amino-5-hydroxypent-2-enoyl)-4-(2-(1-ethyl-3-(trifluoromethyl)-1 H-pyrazol-4-yl)phenyl)-4,5,6,7-tetrahydrothieno[2,3-c]pyridine-2-carbonitrile] | 2.84
0.324 | CCn1cc(-c2ccccc2[C@@H]2CN(C(=O)/C=C/[C@@H]3CCC(C)(C)N3)Cc3sc(C#N)cc32)c(C(F)(F)F)n1 [Example 79, (S)-6-((E)-3-((S)-5,5-Dimethylpyrrolidin-2-yl)acryloyl)-4-(2-(1-ethyl-3-(trifluoromethyl)-1H pyrazol-4-yl)phenyl)-4,5,6,7-tetrahydrothieno[2,3-c]pyridine-2-carbonitrile] | 1.77
0.212 | CCn1cc(-c2ccccc2[C@@H]2CN(C(=O)/C=C/[C@@H]3C[C@H](C)CN3)Cc3sc(C#N)cc32)c(C(F)(F)F)n1 [Example 80, (S)-4-(2-(1-Ethyl-3-(trifluoromethyl)-1H pyrazol-4-yl)phenyl)-6-((E)-3-((2S,4S)-4-methylpyrrolidin-2-yl)acryloyl)-4,5,6,7-tetrahydrothieno[2,3-c]pyridine-2-carbonitrile] | 1.24
0.35 | CCn1cc(-c2ccccc2[C@@H]2CN(C(=O)/C=C/[C@H]3C[C@@H](C)CN3)Cc3sc(C#N)cc32)c(C(F)(F)F)n1 [Example 81, (S)-4-(2-(1-Ethyl-3-(trifluoromethyl)-1 H-pyrazol-4-yl)phenyl)-6-((E)-3-((2R, 4R)-4-methylpyrrolidin-2-yl)acryloyl)-4,5,6,7-tetrahydrothieno[2,3-c]pyridine-2-carbonitrile] | 2.69
0.357 | CCn1cc(-c2ccccc2[C@@H]2CN(C(=O)/C=C/[C@H]3CC(C)(C)CN3)Cc3sc(C#N)cc32)c(C(F)(F)F)n1 [Example 82, (S)-6-((E)-3-((R)-4,4-Dimethylpyrrolidin-2-yl)acryloyl)-4-(2-(1-ethyl-3-(trifluoromethyl)-1H pyrazol-4-yl)phenyl)-4,5,6,7-tetrahydrothieno[2,3-c]pyridine-2-carbonitrile] | 1.08
